Data as given in patent US20200216416A1, “QUINOLINE COMPOUNDS AS INHIBITORS OF TAM AND MET KINASES” (Array BioPharma Inc., priority 2019, published 2020).
pIC50: −log10 of the molar value. Where two headings read alike, the source gives them in different places.

What was measured:
[1] = target: T1, human MET kinase L1195V (Homo sapiens, UniProt P08581, L1195V); test: c-Met Enzyme Assay, L1195V mutant; format: binding; settings: averaged IC50; L1195V 10 nM; 60-minute incubation at 22° C.
T1 construct: GST-tagged recombinant human MET kinase domain; purchased Signal Chem
T1 sequence (P08581 1078-1345 L1195V limits assumed): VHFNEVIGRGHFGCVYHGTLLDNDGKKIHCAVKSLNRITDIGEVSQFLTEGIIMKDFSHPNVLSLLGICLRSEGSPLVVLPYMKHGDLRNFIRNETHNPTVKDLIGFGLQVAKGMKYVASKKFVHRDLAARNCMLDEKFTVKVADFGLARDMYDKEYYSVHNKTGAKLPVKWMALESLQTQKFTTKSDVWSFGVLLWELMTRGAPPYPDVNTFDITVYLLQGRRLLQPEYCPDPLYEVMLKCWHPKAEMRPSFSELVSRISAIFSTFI
Summary of the method: (§1)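 GST-tagged recombinant MET kinase domain was incubated with 50 nM Alexa-Fluor tracer 236, 2 nM Eu-anti-GST and compound in 25 mM HEPES pH 7.4, 10 mM MgCl2, 0.01% Triton X-100, 1 mM DTT, 2% DMSO for 60 min at 22 °C. TR-FRET ratio gave percent of control, fitted 4-parameter; IC50 at 50 POC.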

[2] = target: T2, human MET kinase F1200I (Homo sapiens, UniProt P08581, F1200I); test: c-Met Enzyme Assay, F1200I mutant; format: binding; settings: averaged IC50; F1200I 2 nM; 60-minute incubation at 22° C.
T2 construct: GST-tagged recombinant human MET kinase domain; purchased Signal Chem
T2 sequence (P08581 1078-1345 F1200I limits assumed): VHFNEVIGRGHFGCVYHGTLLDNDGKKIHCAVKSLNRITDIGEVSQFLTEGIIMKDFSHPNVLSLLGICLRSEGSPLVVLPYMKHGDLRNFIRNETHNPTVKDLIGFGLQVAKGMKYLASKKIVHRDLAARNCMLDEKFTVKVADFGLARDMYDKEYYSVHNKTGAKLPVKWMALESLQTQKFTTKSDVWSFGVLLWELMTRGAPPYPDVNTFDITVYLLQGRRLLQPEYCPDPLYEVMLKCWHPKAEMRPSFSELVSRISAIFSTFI
Summary of the method: as §1

[3] = target: T3, MET (wt) GST-tagged recombinant human MET kinase domain (Homo sapiens, UniProt P08581); test: c-Met Enzyme Assay, wild type (LanthaScreen Eu Kinase Binding); settings: averaged IC50; MET (wt) 10 nM; 60-minute incubation at 22° C.; read-out: SigChem WT IC50
T3 construct: GST-tagged recombinant human MET kinase domain; purchased Signal Chem
T3 sequence (P08581 1078-1345 limits assumed): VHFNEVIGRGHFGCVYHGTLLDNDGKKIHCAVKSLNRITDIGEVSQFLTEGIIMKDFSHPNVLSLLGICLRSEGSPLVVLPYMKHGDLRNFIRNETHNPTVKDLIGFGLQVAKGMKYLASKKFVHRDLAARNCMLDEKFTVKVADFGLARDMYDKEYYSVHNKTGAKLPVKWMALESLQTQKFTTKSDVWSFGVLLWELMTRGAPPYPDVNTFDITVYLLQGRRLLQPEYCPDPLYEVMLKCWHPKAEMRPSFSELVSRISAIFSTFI
Summary of the method: as §1

[4] = target: T4, human MET kinase Y1230C (Homo sapiens, UniProt P08581, Y1230C); test: c-Met Enzyme Assay, Y1230C mutant; format: binding; settings: averaged IC50; Y1230C 2 nM; 60-minute incubation at 22° C.; read-out: Y1230 C IC50
T4 construct: GST-tagged recombinant human MET kinase domain; purchased Signal Chem
T4 sequence (P08581 1078-1345 Y1230C): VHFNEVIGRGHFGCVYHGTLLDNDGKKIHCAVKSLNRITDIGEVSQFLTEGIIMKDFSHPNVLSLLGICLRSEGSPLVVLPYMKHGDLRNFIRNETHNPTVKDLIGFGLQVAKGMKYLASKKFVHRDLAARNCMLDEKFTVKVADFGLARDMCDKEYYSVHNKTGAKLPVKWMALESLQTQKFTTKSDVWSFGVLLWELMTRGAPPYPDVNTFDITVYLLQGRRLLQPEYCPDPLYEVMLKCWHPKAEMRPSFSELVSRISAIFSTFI
Summary of the method: as §1

[5] = target: T5, MDR1 (P-gp) (Homo sapiens, UniProt P08183); test: MDR1 LLC-PK1 permeability assay; format: in vitro ADME; settings: pig, MDR1 transfected LLC-PK1 cells; for Papp at 2 h, 1 μM: permeability coefficient (Papp)
T5 construct: expressed in transfected cells; host or cells: LLC-PK1
T5 sequence (P08183 whole entry): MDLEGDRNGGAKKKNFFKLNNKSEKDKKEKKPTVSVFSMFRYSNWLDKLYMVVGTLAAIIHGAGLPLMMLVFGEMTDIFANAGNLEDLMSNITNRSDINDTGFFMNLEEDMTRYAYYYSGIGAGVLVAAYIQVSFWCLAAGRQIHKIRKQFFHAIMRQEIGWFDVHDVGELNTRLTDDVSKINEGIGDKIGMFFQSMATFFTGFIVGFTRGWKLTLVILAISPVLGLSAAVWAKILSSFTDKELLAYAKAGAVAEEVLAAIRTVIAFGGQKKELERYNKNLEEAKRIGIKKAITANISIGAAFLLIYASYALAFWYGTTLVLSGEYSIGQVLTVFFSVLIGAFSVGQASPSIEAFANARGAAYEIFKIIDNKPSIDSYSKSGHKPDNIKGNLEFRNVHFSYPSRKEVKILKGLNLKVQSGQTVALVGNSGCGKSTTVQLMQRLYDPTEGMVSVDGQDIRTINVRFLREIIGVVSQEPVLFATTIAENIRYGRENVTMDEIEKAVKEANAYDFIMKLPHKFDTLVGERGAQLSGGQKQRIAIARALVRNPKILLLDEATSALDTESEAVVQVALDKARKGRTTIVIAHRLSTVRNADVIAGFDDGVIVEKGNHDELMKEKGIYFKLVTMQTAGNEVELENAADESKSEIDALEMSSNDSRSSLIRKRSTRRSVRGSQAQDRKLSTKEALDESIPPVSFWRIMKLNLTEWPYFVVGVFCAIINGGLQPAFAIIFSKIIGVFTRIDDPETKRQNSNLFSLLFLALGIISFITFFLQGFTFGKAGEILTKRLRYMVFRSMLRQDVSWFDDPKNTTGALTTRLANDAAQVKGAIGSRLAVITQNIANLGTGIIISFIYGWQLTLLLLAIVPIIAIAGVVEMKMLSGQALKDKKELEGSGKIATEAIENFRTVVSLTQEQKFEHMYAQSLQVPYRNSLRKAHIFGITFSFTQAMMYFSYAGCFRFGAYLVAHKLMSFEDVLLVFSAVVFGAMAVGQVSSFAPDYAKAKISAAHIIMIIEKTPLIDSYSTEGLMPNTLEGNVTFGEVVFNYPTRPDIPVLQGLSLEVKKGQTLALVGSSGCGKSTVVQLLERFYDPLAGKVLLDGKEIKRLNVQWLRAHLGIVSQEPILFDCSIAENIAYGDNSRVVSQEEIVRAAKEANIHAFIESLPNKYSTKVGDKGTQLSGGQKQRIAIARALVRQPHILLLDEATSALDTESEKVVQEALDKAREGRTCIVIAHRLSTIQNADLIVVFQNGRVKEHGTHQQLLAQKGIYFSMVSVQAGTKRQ
Summary of the method: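 MDR1-transfected LLC-PK1 monolayers dosed at 1 μM test article (1% organic) in A→B and B→A directions, in triplicate, for 2 h at 37 °C; lucifer yellow monitored monolayer integrity. Compound measured by LC-MS/MS against labetalol internal standard; Papp averaged per replicate, efflux ratio = Papp(B−A)/Papp(A−B).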

[6] = target: T6, human MET kinase Y1230H (Homo sapiens, UniProt P08581, Y1230H); test: c-Met Enzyme Assay, Y1230H mutant; format: binding; settings: averaged IC50; Y1230H 5 nM; 60-minute incubation at 22° C.; read-out: Y1230 H IC50
T6 construct: GST-tagged recombinant human MET kinase domain; purchased Signal Chem
T6 sequence (P08581 1078-1345 Y1230H): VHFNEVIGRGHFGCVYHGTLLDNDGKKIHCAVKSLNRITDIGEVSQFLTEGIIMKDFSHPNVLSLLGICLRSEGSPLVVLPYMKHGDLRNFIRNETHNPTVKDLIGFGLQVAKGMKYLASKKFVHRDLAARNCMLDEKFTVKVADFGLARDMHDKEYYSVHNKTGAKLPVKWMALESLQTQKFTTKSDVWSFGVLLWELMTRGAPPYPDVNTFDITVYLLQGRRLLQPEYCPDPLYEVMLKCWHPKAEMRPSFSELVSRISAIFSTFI
Summary of the method: as §1

[7] = target: T7, human MET kinase Y1230S (Homo sapiens, UniProt P08581, Y1230S); test: c-Met Enzyme Assay, Y1230S mutant; format: binding; settings: averaged IC50; Y1230S 8 nM; 60-minute incubation at 22° C.; read-out: Y1230 S IC50
T7 construct: GST-tagged recombinant human MET kinase domain; purchased Signal Chem
T7 sequence (P08581 1078-1345 Y1230S): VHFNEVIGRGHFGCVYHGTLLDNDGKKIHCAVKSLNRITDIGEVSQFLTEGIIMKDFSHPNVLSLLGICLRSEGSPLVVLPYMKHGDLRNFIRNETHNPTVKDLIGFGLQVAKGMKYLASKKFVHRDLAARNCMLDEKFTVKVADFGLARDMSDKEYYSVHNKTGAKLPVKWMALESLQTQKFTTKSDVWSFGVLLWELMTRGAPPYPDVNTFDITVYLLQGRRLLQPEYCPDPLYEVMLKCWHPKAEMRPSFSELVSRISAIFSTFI
Summary of the method: as §1

[8] = LLC-PK1, Papp(B−A)/Papp(A−B), test article 1 μM, 2 hours, 37° C., read-out: Efflux ratio
[9] = LLC-PK1, efflux ratio = Papp(B-A)/Papp(A-B), read-out: MDR1 Pe Ratio

| SMILES | pIC50 [1] | pIC50 [2] | pIC50 [3] | pIC50 [4] | efflux ratio at 2 h, 1 μM [5, 8] | efflux ratio at 2 h, 1 μM [5, 9] | Papp at 2 h, 1 μM [5] | pIC50 [6] | pIC50 [7] |
| --- | --- | --- | --- | --- | --- | --- | --- | --- | --- |
| COc1cc2nccc(Oc3ccc(NC(=O)c4cn(C(C)C)cc(-c5ccc(F)cc5Cl)c4=O)nc3)c2cc1OC [Example 18, 5-(2-chloro-4-fluorophenyl)-N-(5-((6,7-dimethoxyquinolin-4-yl)oxy)pyridin-2-yl)-1-isopropyl-4-oxo-1,4-dihydropyridine-3-carboxamide] | 7.67 | 8.37 | 8.57 | 8.62 | 3.5 | 2.1 | 11 ×10⁻⁶ cm/s | 8.34 | 8.57 |
| CCCC(CCC)n1cc(C(=O)Nc2ccc(Oc3ccnc4cc(OC)c(OC)cc34)cn2)c(=O)c(-c2ccc(F)cc2F)c1 [Example 17, 5-(2,4-difluorophenyl)-N-(5-((6,7-dimethoxyquinolin-4yl)oxy)pyridin-2-yl)-1-(heptan-4-yl)-4-oxo-1,4-dihydropyridine-3-carboxamide] | 7.08 | 7.63 | 7.75 | 7.81 | – | 24 | < 1 ×10⁻⁶ cm/s | 7.57 | 7.94 |
| COc1ccc2nccc(Oc3ccc(NC(=O)c4cn(CCN(C)C)cc(-c5ccc(F)cc5)c4=O)nc3)c2c1 [Example 47] | 6.38 | 8.07 | 7.99 | 8.06 | – | 9.3 | – | 7.53 | 7.72 |
| COc1cc2nccc(Oc3ccc(NC(=O)c4cn(C(C)C)cc(-c5ccc(F)cc5)c4=O)nc3)c2cc1OC [Example 1] | 8.15 | 8.60 | 8.62 | 8.82 | 3.5 | 3.2 | 10 ×10⁻⁶ cm/s | 8.54 | 8.89 |
| COc1cc2nccc(Oc3cnc(NC(=O)c4cn(C(C)C)cc(-c5ccc(F)cc5)c4=O)nc3)c2cc1OC [Example 54, N-(5-((6,7-dimethoxyquinolin-4-yl)oxy)pyrimidin-2-yl)-5-(4-fluorophenyl)-1-isopropyl-4-oxo-1,4-dihydropyridine-3-carboxamide] | 7.83 | 8.17 | 8.33 | 8.37 | – | 114 | 12 ×10⁻⁶ cm/s | 8.14 | 8.49 |
| COc1cc2nccc(Oc3ccc(NC(=O)c4cn(CCC(C)C)cc(-c5ccc(Cl)cc5)c4=O)nc3)c2cc1OC [Example 37] | 7.63 | 7.79 | 8.00 | 8.03 | – | 13 | < 1 ×10⁻⁶ cm/s | 7.77 | 7.99 |
| COc1cc2nccc(Oc3cnc(NC(=O)c4cn(C(C)C)c(C)c(-c5ccc(F)cc5)c4=O)nc3)c2cc1OC [Example 55, N-(5-((6,7-dimethoxyquinolin-4-yl)oxy)pyrimidin-2-yl)-5-(4-fluorophenyl)-1-isopropyl-6-methyl-4-oxo-1,4-dihydropyridine-3-carboxamide] | 8.29 | 8.47 | 8.55 | 8.66 | – | 144 | 8 ×10⁻⁶ cm/s | 8.55 | 8.59 |
| COc1cc2nccc(Oc3ccc(NC(=O)c4cn(CC(=O)N(C)C)cc(-c5ccc(F)cc5F)c4=O)nc3)c2cc1OC [Example 13, 5-(2,4-difluorophenyl)-N-(5((6,7-dimethoxyquinolin-4-yl)oxy)pyridin-2-yl)-1-(2-(dimethylamino)-2-oxoethyl)-4-oxo-1,4-dihydropyridine-3-carboxamide] | 7.08 | 8.32 | 8.47 | 8.48 | – | 112 | 6 ×10⁻⁶ cm/s | 8.24 | 8.22 |
| COc1ccc(-c2cn(C(C)C)cc(C(=O)Nc3ccc(Oc4ccnc5cc(OC)c(OC)cc45)cn3)c2=O)cc1 [Example 30, N-(5-((6,7-dimethoxyquinolin-4yl)oxy)pyridin-2-yl)-1-isopropyl-5-(4-methoxyphenyl)-4-oxo-1,4-dihydropyridine-3-carboxamide] | 7.40 | 7.23 | 7.40 | 7.08 | 3.5 | 3.1 | 7 ×10⁻⁶ cm/s | 6.99 | 7.05 |
| CCn1cc(C(=O)Nc2ccc(Oc3ccnc4cc(OC)c(OC)cc34)cn2)c(=O)c(-c2ccc(F)cc2)c1 [Example 3] | 7.82 | 8.30 | 8.49 | 8.38 | – | 4.3 | 10 ×10⁻⁶ cm/s | 8.19 | 8.33 |
| COc1cc2nccc(Oc3ccc(NC(=O)c4cn(CC(=O)N(C)C)cc(-c5ccc(F)cc5)c4=O)nc3)c2cc1OC [Example 23, N-(5-((6,7-dimethoxyquinolin-4yl)oxy)pyridin-2-yl)-1-(2-(dimethylamino)-2-oxoethyl)-5-(4-fluorophenyl)-4-oxo-1,4-dihydropyridine-3-carboxamide] | 7.40 | 8.37 | 8.55 | 7.84 | – | 105 | 6 ×10⁻⁶ cm/s | 8.11 | 8.42 |
| COc1cc2nccc(Oc3ccc(NC(=O)c4cn(CCC(C)C)cc(-c5ccc(F)cc5)c4=O)nc3)c2cc1OC [Example 34, N-(5-((6,7-dimethoxyquinolin-4yl)oxy)pyridin-2-yl)-5-(4-fluorophenyl)-1-isopentyl-4-oxo-1,4-dihydropyridine-3-carboxamide] | 7.95 | 8.13 | 8.40 | 8.38 | – | 5.3 | < 1 ×10⁻⁶ cm/s | 8.23 | 8.39 |
| COc1cc2nccc(Oc3ccc(NC(=O)c4cn(CCN(C)C)cc(-c5ccc(F)cc5)c4=O)nc3)c2cc1OC [Example 46] | 7.66 | 8.47 | 8.52 | 8.77 | – | 13 | 2 ×10⁻⁶ cm/s | 8.47 | 8.77 |
| COc1cc2nccc(Oc3ccc(NC(=O)c4cn(CC(=O)N(C)C)cc(-c5ccc(F)c(F)c5)c4=O)nc3)c2cc1OC [Example 24, 5-(3,4-difluorophenyl)-N-(5-((6,7-dimethoxyquinolin-4-yl)oxy)pyridin-2-yl)-1-(2-(dimethylamino)-2-oxoethyl)-4-oxo-1,4-dihydropyridine-3-carboxamide] | 7.04 | 7.95 | 8.11 | 7.84 | – | 210 | 9.5 ×10⁻⁶ cm/s | 7.64 | 7.78 |
